Source: PubChem BioAssay (NCI)
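GI50 is the concentration that inhibits growth by half. Definition used: TGI = concentration required for complete inhibition of growth.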

What was measured:
Test in all cases: NCI-60 cell line screen, 384-well format
PC-3 prostate = test system: PC-3 prostate
BT-549 breast = test system: BT-549 breast
HCT-116 colon = test system: HCT-116 colon
SF-539 CNS = test system: SF-539 CNS
OVCAR-5 ovarian = test system: OVCAR-5 ovarian
A498 renal = test system: A498 renal
MDA-MB-468 breast = test system: MDA-MB-468 breast
NCI/ADR-RES ovarian = test system: NCI/ADR-RES ovarian
T-47D breast = test system: T-47D breast
NCI-H522 lung = test system: NCI-H522 lung
M14 melanoma = test system: M14 melanoma
SF-295 CNS = test system: SF-295 CNS
CCRF-CEM leukemia = test system: CCRF-CEM leukemia
K-562 leukemia = test system: K-562 leukemia
SN12C renal = test system: SN12C renal
SNB-19 CNS = test system: SNB-19 CNS
UACC-257 melanoma = test system: UACC-257 melanoma
NCI-H23 lung = test system: NCI-H23 lung
TK-10 renal = test system: TK-10 renal
MDA-MB-435 melanoma = test system: MDA-MB-435 melanoma
SNB-75 CNS = test system: SNB-75 CNS
DU-145 prostate = test system: DU-145 prostate
HS 578T breast = test system: HS 578T breast
NCI-H322M lung = test system: NCI-H322M lung
HT29 colon = test system: HT29 colon
SF-268 CNS = test system: SF-268 CNS
SK-MEL-28 melanoma = test system: SK-MEL-28 melanoma
HOP-92 NSCLC = test system: HOP-92 NSCLC
U251 glioblastoma = test system: U251 glioblastoma
MOLT-4 leukemia = test system: MOLT-4 leukemia
MALME-3M melanoma = test system: MALME-3M melanoma
EKVX NSCLC = test system: EKVX NSCLC
NCI-H460 NSCLC = test system: NCI-H460 NSCLC
RPMI-8226 leukemia = test system: RPMI-8226 leukemia
HCC-2998 colon = test system: HCC-2998 colon
COLO 205 colon = test system: COLO 205 colon
HL-60(TB) leukemia = test system: HL-60(TB) leukemia
786-0 renal = test system: 786-0 renal
KM12 colon = test system: KM12 colon
SK-OV-3 ovarian = test system: SK-OV-3 ovarian
MCF7 breast = test system: MCF7 breast
ACHN renal = test system: ACHN renal
OVCAR-8 ovarian = test system: OVCAR-8 ovarian
CAKI-1 renal = test system: CAKI-1 renal
HOP-62 NSCLC = test system: HOP-62 NSCLC
OVCAR-4 ovarian = test system: OVCAR-4 ovarian
SR leukemia = test system: SR leukemia
OVCAR-3 ovarian = test system: OVCAR-3 ovarian
LOX IMVI melanoma = test system: LOX IMVI melanoma
UO-31 renal = test system: UO-31 renal
A549 NSCLC = test system: A549 NSCLC
SK-MEL-5 melanoma = test system: SK-MEL-5 melanoma
RXF 393 renal = test system: RXF 393 renal
HCT-15 colon = test system: HCT-15 colon
IGROV1 ovarian = test system: IGROV1 ovarian
SW-620 colon = test system: SW-620 colon
NCI-H226 lung = test system: NCI-H226 lung
MDA-MB-231 breast = test system: MDA-MB-231 breast

Cc1ccccc1N=Nc1ccc(NC(=O)c2ccnn2C)c(C)c1
GI50 (PC-3 prostate): > 100 µM
TGI (PC-3 prostate): > 100 µM
GI50 (BT-549 breast): 48.6 µM
TGI (BT-549 breast): > 100 µM
GI50 (HCT-116 colon): 13.1 µM
TGI (HCT-116 colon): > 100 µM
GI50 (SF-539 CNS): > 100 µM
TGI (SF-539 CNS): > 100 µM
GI50 (OVCAR-5 ovarian): > 100 µM
TGI (OVCAR-5 ovarian): > 100 µM
GI50 (A498 renal): 90.4 µM
TGI (A498 renal): > 100 µM
GI50 (MDA-MB-468 breast): 3.87 µM
TGI (MDA-MB-468 breast): 59.4 µM
GI50 (NCI/ADR-RES ovarian): 6.99 µM
TGI (NCI/ADR-RES ovarian): > 100 µM
GI50 (T-47D breast): 8.3 µM
TGI (T-47D breast): > 100 µM
GI50 (NCI-H522 lung): 15.4 µM
TGI (NCI-H522 lung): 93.1 µM
GI50 (M14 melanoma): > 100 µM
TGI (M14 melanoma): > 100 µM
GI50 (SF-295 CNS): 27.1 µM
TGI (SF-295 CNS): > 100 µM
GI50 (CCRF-CEM leukemia): 13.8 µM
TGI (CCRF-CEM leukemia): > 100 µM
GI50 (K-562 leukemia): 7.47 µM
TGI (K-562 leukemia): > 100 µM
GI50 (SN12C renal): > 100 µM
TGI (SN12C renal): > 100 µM
GI50 (SNB-19 CNS): > 100 µM
TGI (SNB-19 CNS): > 100 µM
GI50 (UACC-257 melanoma): 40.2 µM
TGI (UACC-257 melanoma): > 100 µM
GI50 (NCI-H23 lung): 13.6 µM
TGI (NCI-H23 lung): > 100 µM
GI50 (TK-10 renal): 63.7 µM
TGI (TK-10 renal): > 100 µM
GI50 (MDA-MB-435 melanoma): > 100 µM
TGI (MDA-MB-435 melanoma): > 100 µM
GI50 (SNB-75 CNS): 25.8 µM
TGI (SNB-75 CNS): 99.7 µM
GI50 (DU-145 prostate): > 100 µM
TGI (DU-145 prostate): > 100 µM
GI50 (HS 578T breast): 27.8 µM
TGI (HS 578T breast): > 100 µM
GI50 (NCI-H322M lung): 51.9 µM
TGI (NCI-H322M lung): > 100 µM
GI50 (HT29 colon): > 100 µM
TGI (HT29 colon): > 100 µM
GI50 (SF-268 CNS): 96.7 µM
TGI (SF-268 CNS): > 100 µM
GI50 (SK-MEL-28 melanoma): > 100 µM
TGI (SK-MEL-28 melanoma): > 100 µM
GI50 (HOP-92 NSCLC): 34.8 µM
TGI (HOP-92 NSCLC): > 100 µM
GI50 (U251 glioblastoma): 18 µM
TGI (U251 glioblastoma): 73.1 µM
GI50 (MOLT-4 leukemia): 30.4 µM
TGI (MOLT-4 leukemia): > 100 µM
GI50 (MALME-3M melanoma): > 100 µM
TGI (MALME-3M melanoma): > 100 µM
GI50 (EKVX NSCLC): 23.2 µM
TGI (EKVX NSCLC): > 100 µM
GI50 (NCI-H460 NSCLC): 6.69 µM
TGI (NCI-H460 NSCLC): 27.3 µM
GI50 (RPMI-8226 leukemia): 5.58 µM
TGI (RPMI-8226 leukemia): > 100 µM
GI50 (HCC-2998 colon): > 100 µM
TGI (HCC-2998 colon): > 100 µM
GI50 (COLO 205 colon): > 100 µM
TGI (COLO 205 colon): > 100 µM
GI50 (HL-60(TB) leukemia): 34.4 µM
TGI (HL-60(TB) leukemia): > 100 µM
GI50 ([…]-0 renal): 68.8 µM
TGI (786-0 renal): > 100 µM
GI50 (KM12 colon): > 100 µM
TGI (KM12 colon): > 100 µM
GI50 (SK-OV-3 ovarian): > 100 µM
TGI (SK-OV-3 ovarian): > 100 µM
GI50 (MCF7 breast): 36.8 µM
TGI (MCF7 breast): > 100 µM
GI50 (ACHN renal): 95.2 µM
TGI (ACHN renal): > 100 µM
GI50 (OVCAR-8 ovarian): 46.4 µM
TGI (OVCAR-8 ovarian): > 100 µM
GI50 (CAKI-1 renal): > 100 µM
TGI (CAKI-1 renal): > 100 µM
GI50 (HOP-62 NSCLC): 37.2 µM
TGI (HOP-62 NSCLC): > 100 µM
GI50 (OVCAR-4 ovarian): 47.7 µM
TGI (OVCAR-4 ovarian): > 100 µM
GI50 (SR leukemia): 2 µM
TGI (SR leukemia): 7.31 µM
GI50 (OVCAR-3 ovarian): > 100 µM
TGI (OVCAR-3 ovarian): > 100 µM
GI50 (LOX IMVI melanoma): 39.4 µM
TGI (LOX IMVI melanoma): > 100 µM
GI50 (UO-31 renal): > 100 µM
TGI (UO-31 renal): > 100 µM
GI50 (A549 NSCLC): > 100 µM
TGI (A549 NSCLC): > 100 µM
GI50 (SK-MEL-5 melanoma): 11.2 µM
TGI (SK-MEL-5 melanoma): 87.1 µM
GI50 (RXF 393 renal): 5.29 µM
TGI (RXF 393 renal): 23.7 µM
GI50 (HCT-15 colon): 54.4 µM
TGI (HCT-15 colon): > 100 µM
GI50 (IGROV1 ovarian): > 100 µM
TGI (IGROV1 ovarian): > 100 µM
GI50 (SW-620 colon): > 100 µM
TGI (SW-620 colon): > 100 µM
GI50 (NCI-H226 lung): 31.5 µM
TGI (NCI-H226 lung): > 100 µM
GI50 (MDA-MB-231 breast): 92.8 µM
TGI (MDA-MB-231 breast): > 100 µM
